Data published in patent US20240383874A1, “BENZENE RING DERIVATIVE, AND COMPOSITION AND PHARMACEUTICAL USE THEREOF” (Xizang Haisco Pharmaceutical Co., Ltd., priority 2020, published 2024).
pIC50: −log10 of the molar value. Counter-ions that a name gives are not always drawn. Like-named read-outs stand apart in the source and are kept apart here.

Tested on: 22RV1 cells
Assay: Experiment 2 on inhibiting 22RV1 cell proliferation (7 days, CellTiter-Glo)
Assay type: cell-based
Details: 1% css-FBS phenol red-free medium, incubated with compound 7 days, read-out: IC50 values on proliferation inhibition of 22RV1 cells
Description: Prostate cancer cells 22RV1 were purchased from ATCC, the cell medium was RPMI 1640+10% FBS, and the cells were cultured in an incubator at 37° C. under 5% CO2. On day 1, the cells in an exponential phase were collected. With a 1% css-FBS phenol red-free medium, the cell suspension was adjusted to a corresponding concentration, plated at 2000 cells/well and incubated overnight. On day 2, compounds at different concentrations were added, and the plate was placed in the incubator and incubated for further 7 days. After the incubation was completed, according to operation instructions for a CellTiter-Glo kit (Promega, G7573), 50 μL of CTG solution, which was already pre-melted and equilibrated to room temperature, was added to each well, and the mixtures were uniformly mixed for 2 min using a microplate shaker. The plate was placed at room temperature for 10 min, and then fluorescence signal values were measured using a microplate reader (PHERAstar FSX). The results were processed according to formula (2), the survival rate of the compound at different concentrations was calculated, and the IC50 value of the compound with a survival rate of 50% was calculated using origin9.2 software with DoseResp function, wherein RLU compound was the readout of the treated group, and RLU control was the average value of the DMSO vehicle control group.

Row | SMILES | pIC50 (Homo sapiens, 22Rv1, 168 h) | pIC50
1 | Cc1ncsc1-c1ccc([C@H](C)NC(=O)[C@@H]2C[C@@H](O)CN2C(=O)[C@@H](NC(=O)CN2CCC(CN3CCN(c4nccc(COc5ccc(C(C)(C)c6cc(Cl)cc(C#N)c6)cc5)n4)CC3)CC2)C(C)(C)C)cc1 [Compound 51 trifluoroacetate, (2S,4R)-1-((S)-2-(2-(4-((4-(4-((4-(2-(3-chloro-5-cyanophenyl)propan-2-yl)phenoxy)methyl)pyrimidin-2-yl)piperazin-1-yl)methyl)piperidin-1-yl)acetamido)-3,3-dimethylbutanoyl)-4-hydroxy-N-((S)-1-(4-(4-methylthiazol-5-yl)phenyl)ethyl)pyrrolidine-2-carboxamide] | 6.08 | 
2 | CC(C)(c1ccc(OCc2ccnc(N3CC4(CCN(C5CCN(CC6CCN(c7cccc8c7C(=O)N(C7CCC(=O)NC7=O)C8=O)CC6)CC5)CC4)C3)n2)cc1)c1cc(Cl)c(OCCCl)c(C#N)c1 (stereo not shown) [Compound 25, 3-chloro-2-(2-chloroethoxy)-5-(2-(4-((2-(7-(1-((1-(2-(2,6-dioxopiperidin-3-yl)-1,3-dioxoisoindolin-4-yl)piperidin-4-yl)methyl)piperidin-4-yl)-2,7-diazaspiro[3.5]nonan-2-yl)pyrimidin-4-yl)methoxy)phenyl)propan-2-yl)benzonitrile] |  | 6.27
3 | CC(C)(c1ccc(OCc2ccnc(N3CC4CN(C5CCN(C6CN(c7ccc8c(c7)C(=O)N(C7CCC(=O)NC7=O)C8=O)C6)CC5)CC4C3)n2)cc1)c1cc(Cl)cc(C#N)c1 (stereo not shown) [Compound 81 trifluoroacetate, 3-chloro-5-(2-(4-((2-(5-(1-(1-(2-(2,6-dioxopiperidin-3-yl)-1,3-dioxoisoindolin-5-yl)azetidin-3-yl)piperidin-4-yl)hexahydropyrrolo[3,4-c]pyrrol-2(1H)-yl)pyrimidin-4-yl)methoxy)phenyl)propan-2-yl)benzonitrile] | 6.32 | 
4 | CC(C)(c1ccc(OCc2ccnc(N3C[C@@H]4CN(C5CCN(C6CN(c7ccc8c(c7)C(=O)N(C7CCC(=O)NC7=O)C8=O)C6)CC5)C[C@@H]4C3)n2)cc1)c1cc(Cl)c(OCCCl)c(C#N)c1 (stereo partly drawn) [Compound 17, 3-chloro-2-(2-chloroethoxy)-5-(2-(4-((2-((3aR,6aS)-5-(1-(1-(2-(2,6-dioxopiperidin-3-yl)-1,3-dioxoisoindolin-5-yl)azetidin-3-yl)piperidin-4-yl)hexahydropyrrolo[3,4-c]pyrrol-2(1H)-yl)pyrimidin-4-yl)methoxy)phenyl)propan-2-yl)benzonitrile] |  | 5.99
5 | CC(C)(c1ccc(OCc2ccnc(N3CCN(CC4CCN(C5CC6(CCN(c7ccc8c(c7)C(=O)N(C7CCC(=O)NC7=O)C8=O)CC6)C5)C4)CC3)n2)cc1)c1cc(Cl)cc(C#N)c1 (stereo not shown) [Compound 66 trifluoroacetate, 3-chloro-5-(2-(4-((2-(4-((1-(7-(2-(2,6-dioxopiperidin-3-yl)-1,3-dioxoisoindolin-5-yl)-7-azaspiro[3.5]nonan-2-yl)pyrrolidin-3-yl)methyl)piperazin-1-yl)pyrimidin-4-yl)methoxy)phenyl)propan-2-yl)benzonitrile] | 6.23 | 
6 | CC(C)(c1ccc(OCc2ccnc(N3CCC4(CC3)CN(C3CCN(CC5CCN(c6ccc7c(c6)C(=O)N(C6CCC(=O)NC6=O)C7=O)CC5)CC3)C4)n2)cc1)c1cc(Cl)c(OCCCl)c(C#N)c1 (stereo not shown) [Compound 21, 3-chloro-2-(2-chloroethoxy)-5-(2-(4-((2-(2-(1-((1-(2-(2,6-dioxopiperidin-3-yl)-1,3-dioxoisoindolin-5-yl)piperidin-4-yl)methyl)piperidin-4-yl)-2,7-diazaspiro[3.5]nonan-7-yl)pyrimidin-4-yl)methoxy)phenyl)propan-2-yl)benzonitrile] |  | 6.29
7 | CC(C)(c1ccc(OCc2ccnc(N3CC(N4CCC(CN5CCN(c6cccc7c6C(=O)N(C6CCC(=O)NC6=O)C7=O)CC5)CC4)C3)n2)cc1)c1cc(Cl)cc(C#N)c1 (stereo not shown) [Compound 48 trifluoroacetate, 3-chloro-5-(2-(4-((2-(3-(4-((4-(2-(2,6-dioxopiperidin-3-yl)-1,3-dioxoisoindolin-4-yl)piperazin-1-yl)methyl)piperidin-1-yl)azetidin-1-yl)pyrimidin-4-yl)methoxy)phenyl)propan-2-yl)benzonitrile] | 6.22 | 
8 | CC(C)(c1ccc(OCc2ccnc(N3CC(CN4CCC5(CC4)CCN(c4ccc6c(c4)C(=O)N(C4CCC(=O)NC4=O)C6=O)CC5)C3)n2)cc1)c1cc(Cl)cc(C#N)c1 (stereo not shown) [Compound 87 trifluoroacetate, 3-chloro-5-(2-(4-((2-(3-((9-(2-(2,6-dioxopiperidin-3-yl)-1,3-dioxoisoindolin-5-yl)-3,9-diazaspiro[5.5]undecan-3-yl)methyl)azetidin-1-yl)pyrimidin-4-yl)methoxy)phenyl)propan-2-yl)benzonitrile] | 6.52 | 
9 | CC(C)(c1ccc(OCc2ccnc(N3CCN(CC4CCN(CC5CCN(c6cccc7c6C(=O)N(C6CCC(=O)NC6=O)C7=O)CC5)CC4)CC3)n2)cc1)c1cc(Cl)c(OCCCl)c(C#N)c1 (stereo not shown) [Compound 14, 3-chloro-2-(2-chloroethoxy)-5-(2-(4-((2-(4-((1-((1-(2-(2,6-dioxopiperidin-3-yl)-1,3-dioxoisoindolin-4-yl)piperidin-4-yl)methyl)piperidin-4-yl)methyl)piperazin-1-yl)pyrimidin-4-yl)methoxy)phenyl)propan-2-yl)benzonitrile] |  | 6.20
10 | Cn1c(=O)n(C2CCC(=O)NC2=O)c2cccc(CN3CC(N4CCC5(CCN(c6nccc(COc7ccc(C(C)(C)c8cc(Cl)c(OCCCl)c(C#N)c8)cc7)n6)CC5)CC4)C3)c21 (stereo not shown) [Compound 29 trifluoroacetate, 3-chloro-2-(2-chloroethoxy)-5-(2-(4-((2-(9-(1-((1-(2,6-dioxopiperidin-3-yl)-3-methyl-2-oxo-2,3-dihydro-1H-benzo[d]imidazol-4-yl)methyl)azetidin-3-yl)-3,9-diazaspiro[5.5]undecan-3-yl)pyrimidin-4-yl)methoxy)phenyl)propan-2-yl)benzonitrile] | 6.10 | 
11 | CC(C)(c1ccc(OCc2ccnc(N3CCC(C4CCN(CC5CCN(c6ccc7c(c6)C(=O)N(C6CCC(=O)NC6=O)C7=O)CC5)CC4)CC3)n2)cc1)c1cc(Cl)cc(C#N)c1 (stereo not shown) [Compound 38 trifluoroacetate, 3-chloro-5-(2-(4-((2-(1′-((1-(2-(2,6-dioxopiperidin-3-yl)-1,3-dioxoisoindolin-5-yl)piperidin-4-yl)methyl)-[4,4′-bipiperidin]-1-yl)pyrimidin-4-yl)methoxy)phenyl)propan-2-yl)benzonitrile] | 6.05 | 
12 | CC(C)(c1ccc(OCc2ccnc(N3CC4(CCN(C5CCN(CC6CCN(c7ccc8c(c7)C(=O)N(C7CCC(=O)NC7=O)C8=O)CC6)CC5)CC4)C3)n2)cc1)c1cc(Cl)c(OCCCl)c(C#N)c1 (stereo not shown) [Compound 24, 3-chloro-2-(2-chloroethoxy)-5-(2-(4-((2-(7-(1-((1-(2-(2,6-dioxopiperidin-3-yl)-1,3-dioxoisoindolin-5-yl)piperidin-4-yl)methyl)piperidin-4-yl)-2,7-diazaspiro[3.5]nonan-2-yl)pyrimidin-4-yl)methoxy)phenyl)propan-2-yl)benzonitrile] |  | 6.24
13 | CC(C)(c1ccc(OCc2ccnc(N3C[C@@H]4CN(C5CCN(CC6CCN(c7ccc8c(c7)C(=O)N(C7CCC(=O)NC7=O)C8=O)CC6)CC5)C[C@@H]4C3)n2)cc1)c1cc(Cl)c(OCCCl)c(C#N)c1 (stereo partly drawn) [Compound 16, 3-chloro-2-(2-chloroethoxy)-5-(2-(4-((2-((3aR,6aS)-5-(1-((1-(2-(2,6-dioxopiperidin-3-yl)-1,3-dioxoisoindolin-5-yl)piperidin-4-yl)methyl)piperidin-4-yl)hexahydropyrrolo[3,4-c]pyrrol-2(1H)-yl)pyrimidin-4-yl)methoxy)phenyl)propan-2-yl)benzonitrile] |  | 6.10
14 | CC(C)(c1ccc(OCc2ccnc(N3CCN(C4CN(C5CCN(c6ccc7c(c6)C(=O)N(C6CCC(=O)NC6=O)C7=O)C5)C4)CC3)n2)cc1)c1cc(Cl)cc(C#N)c1 (stereo not shown) [Compound 55 trifluoroacetate, 3-chloro-5-(2-(4-((2-(4-(1-(1-(2-(2,6-dioxopiperidin-3-yl)-1,3-dioxoisoindolin-5-yl)pyrrolidin-3-yl)azetidin-3-yl)piperazin-1-yl)pyrimidin-4-yl)methoxy)phenyl)propan-2-yl)benzonitrile] | 6.28 | 
15 | CC(C)(c1ccc(OCc2ccnc(N3CCC(N4CC(N5CCN(c6ccc7c(c6)C(=O)N(C6CCC(=O)NC6=O)C7=O)CC5)C4)CC3)n2)cc1)c1cc(Cl)cc(C#N)c1 (stereo not shown) [Compound 64 trifluoroacetate, 3-chloro-5-(2-(4-((2-(4-(3-(4-(2-(2,6-dioxopiperidin-3-yl)-1,3-dioxoisoindolin-5-yl)piperazin-1-yl)azetidin-1-yl)piperidin-1-yl)pyrimidin-4-yl)methoxy)phenyl)propan-2-yl)benzonitrile] | 6.20 | 
16 | CC(C)(c1ccc(OCc2ccnc(N3CCN(C4CCN(C5CCC6(CC5)CN(c5ccc7c(c5)C(=O)N(C5CCC(=O)NC5=O)C7=O)C6)CC4)CC3)n2)cc1)c1cc(Cl)cc(C#N)c1 (stereo not shown) [Compound 46 trifluoroacetate, 3-chloro-5-(2-(4-((2-(4-(1-(2-(2-(2,6-dioxopiperidin-3-yl)-1,3-dioxoisoindolin-5-yl)-2-azaspiro[3.5]nonan-7-yl)piperidin-4-yl)piperazin-1-yl)pyrimidin-4-yl)methoxy)phenyl)propan-2-yl)benzonitrile] | 6.34 | 
